Literature values in patent US5648396A, “Methods for treating depression and other disorders using optically pure R (-) fluoxetine and monoamine oxidase inhibitor” (Sepracor Inc., priority 1995, dated 1997).
Entries after “also recorded” stand apart in the source; their conditions may differ.

Key:
[1] = suggested
[2] = test system: morning sickness during pregnancy; conditions: control of morning sickness during pregnancy; suggested
[3] = test system: PCPA effect on 5HT; conditions: for Duration of Inhibition of PCPA 5HT effect / Inhibition of PCPA effect on 5HT (full block): Fuller & Snoddy 1986; for Inhibition of PCPA effect on 5HT (ED50): Robertson et al 1988
[4] = test system: Feeding; conditions: rel. potency R vs S, Wong et al 1988
[5] = test system: Saccharine palatability; conditions: Robertson et al 1988
[6] = test system: acetic acid writhing; conditions: Robertson et al 1988
[7] = test system: writhing (morphine potentiation); conditions: Robertson et al 1988
[8] = test system: 5HT1 receptor; conditions: relative to effect on 5HT uptake
[9] = test system: 5HT1A receptor; conditions: relative to effect on 5HT uptake
[10] = test system: HT2 receptor; conditions: relative to effect on 5HT uptake
[11] = test system: α1A receptor; conditions: relative to effect on 5HT uptake
[12] = test system: α2 receptor; conditions: relative to effect on 5HT uptake
[13] = test system: β receptor; conditions: relative to effect on 5HT uptake
[14] = test system: D1 receptor; conditions: relative to effect on 5HT uptake
[15] = test system: D2 receptor; conditions: relative to effect on 5HT uptake
[16] = test system: uptake of norepinephrine; conditions: relative to effect on 5HT uptake
[17] = L-form versus D-enantiomer
[18] = test system: histaminergic receptors; conditions: than tricyclic antidepressants; brain tissue
[19] = test system: α1 adrenergic receptors; conditions: than tricyclic antidepressants; brain tissue
[20] = test system: patients
[21] = racemic mixture
[22] = test system: 5HIAA; conditions: acute effect; Wong et al. 1985
[23] = test system: dopamine turnover in striatum; conditions: in vivo
[24] = test system: patients; conditions: in vivo

Structure (SMILES)	Duration of Inhibition of PCPA 5HT effect [3]	Inhibition of PCPA effect on 5HT (ED50) [3] [mg/kg]	Inhibition of PCPA effect on 5HT (full block) [3]	Inhibition of Saccharine palatability (ED50) [5] [mg/kg]	Inhibition of acetic acid writhing (ED50) [6] [mg/kg]	Inhibition of writhing (morphine potentiation; ED50) [7] [mg/kg]	affinity for 5HT1 receptor [8]	affinity for 5HT1A receptor [9]	affinity for HT2 receptor [10]	affinity for α1A receptor [11]	affinity for α2 receptor [12]	affinity for β receptor [13]	affinity for D1 receptor [14]	affinity for D2 receptor [15]	affinity for the uptake of norepinephrine [16]	other results
O=C1CC[C@H](N2C(=O)c3ccccc3C2=O)C(=O)N1 [L-enantiomer of thalidomide]	–	–	–	–	–	–	–	–	–	–	–	–	–	–	–	teratogenicity [1]: potent teratogen
O=C1CC[C@@H](N2C(=O)c3ccccc3C2=O)C(=O)N1 [D-enantiomer of thalidomide]	–	–	–	–	–	–	–	–	–	–	–	–	–	–	–	sedative effect [2]: safe and effective sedative
CNCC[C@@H](Oc1ccc(C(F)(F)F)cc1)c1ccccc1 [R-Fluoxetine, (-)N-methyl-3-phenyl-3-[(α,α,α-trifluoro-p-tolyl)-oxy]-propylamine]	~ 8 hr	2.1	~ 10 mg/kg	6.1	15.3	3.6	relatively little affinity	relatively little affinity	relatively little affinity	relatively little affinity	relatively little affinity	relatively little affinity	relatively little affinity	relatively little affinity	relatively little affinity	Inhibition of Feeding (meal fed, 2DG) (rel. potency) [4]: R < S
CC(C)NC[C@H](O)COc1cccc2ccccc12 [L-form of propranolol]	–	–	–	–	–	–	–	–	–	–	–	–	–	–	–	potency relative to the D-enantiomer [17]: 100 times
CNCCC(Oc1ccc(C(F)(F)F)cc1)c1ccccc1 (racemic) [R,S-Fluoxetine]	–	–	–	–	–	–	–	–	–	–	–	–	–	–	–	binding to histaminergic receptors [18]: much less potently; binding to α1 adrenergic receptors [19]: much less potently; drug discontinuation due to headaches, nervousness, anxiety and insomnia ([20]; of patients treated with the drug): 5%; adverse effects (in words) ([20]; patients): produces a state of inner restlessness (akathisia); also recorded: severe anxiety leading to intense violent suicidal thoughts and self mutilation; also recorded: manic behavior; also recorded: nausea, diarrhea, drowsiness, decrease in libido, and/or sexual dysfunction; anticholinergic and cardiovascular side effects ([20]; versus tricyclic antidepressants): less anticholinergic side effects such as blurred vision, dry mouth, constipation and urinary retention; also recorded: less lowering of blood pressure, tachycardia and arrhythmias; half-life and duration of action (in words) [21]: long half-life and long duration of action; levels of the intracellular serotonin metabolite 5HIAA [22]: rapid reduction; dopamine turnover in striatum [23]: affects dopamine turnover in striatum; wait after discontinuing fluoxetine before starting treatment with an MAOI [24]: 5-6 weeks
CNCC[C@H](Oc1ccc(C(F)(F)F)cc1)c1ccccc1 [S-Fluoxetine]	> 24 h	1.2	~ 5 mg/kg	4.9	25.7	5.7	relatively little affinity	relatively little affinity	relatively little affinity	relatively little affinity	relatively little affinity	relatively little affinity	relatively little affinity	relatively little affinity	relatively little affinity	–
